Assay results as given in PMC9450014, “The evaluation of ADME and pharmacokinetic properties of decoquinate derivatives for the treatment of malaria” (Frontiers in Pharmacology, 2022).
Where two headings read alike, the source gives them in different places. Blank lines part the entries; values can stand above or below the compound they belong to.

Legend:
[1] = In vivo pharmacokinetics, intravenous administration; set-up: species or system C57BL/6 mice; details: mice, 5 mg/kg per table footnote, 5 mg/kg; for t1/2 of DQ: DQ quantified in whole blood after iv dosing of the O-carbamate (RMB059 or RMB060); for CL of DQ / Vd of DQ: DQ quantified in whole blood after iv dosing of the O-carbamate
Procedure: Healthy C57BL/6 mice each weighing approximately 25 g were maintained at the University of Cape Town animal facility. Mice were housed in 27 × 21 × 28 cm cages (n = 3) under controlled environmental conditions at 22 ± 2°C, humidity of 55 ± 15% and a 12-hour light/dark cycle. Food and water were available ad libitum. Mice were acclimatised to the experimental environment for 4–5 days prior to initiating the experiments. […] The total volume of administration was 80 μL. Blood samples were collected post-dose in lithium heparin microvials via tail bleeding at predetermined intervals at 0.16, 0.5, 1, 3, 5, 8, 10, and 24 h. Samples were gently vortexed and stored at −80°C until analysis. A quantitative LC-MS/MS assay was used to determine whole-blood concentrations of RMB005, −059 and −060. Whole blood samples (20 μL) were treated with 100 μL ice cold acetonitrile containing the compound RMB073 used previously for determination of whole blood concentrations in analysis of TB-active compounds, as internal standard (200 ng/ml) ([Tanner et al., 2019]). The mixture was vortexed vigorously for 1 min, and 5 µL of the supernatant were injected onto the analytical column following centrifugation (5,590 g for 5 min). Gradient elution was carried out using a Gemini NX-C18 analytical column (5 μm, 2.1 mm × 50 mm). The aqueous mobile phase consisted of 5 mm ammonium acetate with 0.1% acetic acid in deionised water, while the organic phase consisted of 0.1% acetic acid in acetonitrile. A Shimadzu HPLC and reverse phase Gemini NX-C18 column coupled to an AB Sciex 3200 Q TRAP MS was operated at unit resolution in the multiple reaction monitoring (MRM) mode. […] The calibration standards ranged from 2 ng/mL to 3,000 ng/mL for RMB005, and 2 ng/mL to 4,000 ng/mL for RMB059, −060 and DQ. Drug concentration versus time plots for each compound were used to determine maximal drug concentration C max, time T max to reach C max, elimination half-life t 1/2 and the area under the concentration-time curve from time zero to infinity, AUC0-inf. From these values the following PK parameters—clearance CL, volume of distribution (Vd) and oral bioavailability (BA) were determined using the non-compartmental analysis Microsoft Excel Add-In PKSolver ([Zhang et al., 2010]).

[2] = In vivo pharmacokinetics, oral administration; set-up: species or system C57BL/6 mice; details: DQ quantified in whole blood after po 20 mg/kg of the O-carbamate, mice; for AUC0-∞ of DQ / Cmax: 20 mg/kg; for Cmax: read-out: Cmax of DQ
Procedure: Healthy C57BL/6 mice each weighing approximately 25 g were maintained at the University of Cape Town animal facility. Mice were housed in 27 × 21 × 28 cm cages (n = 3) under controlled environmental conditions at 22 ± 2°C, humidity of 55 ± 15% and a 12-hour light/dark cycle. Food and water were available ad libitum. Mice were acclimatised to the experimental environment for 4–5 days prior to initiating the experiments. RMB005, −059 and −060 were prepared in an aqueous solution of HPMC containing 0.2% Tween 80. The weighed compound was sonicated and vortexed to obtain a homogenous suspension. Oral dosing of 20 mg/kg was achieved via oral gavage. The total volume per administration was 200 μL. Blood samples were collected post-dose in lithium heparin microvials via tail bleeding at predetermined intervals at 0.5, 1, 3, 5, 8, 10, and 24 h. Samples were gently vortexed and stored at −80°C until analysis. A quantitative LC-MS/MS assay was used to determine whole-blood concentrations of RMB005, −059 and −060. Whole blood samples (20 μL) were treated with 100 μL ice cold acetonitrile containing the compound RMB073 used previously for determination of whole blood concentrations in analysis of TB-active compounds, as internal standard (200 ng/ml) ([Tanner et al., 2019]). The mixture was vortexed vigorously for 1 min, and 5 µL of the supernatant were injected onto the analytical column following centrifugation (5,590 g for 5 min). Gradient elution was carried out using a Gemini NX-C18 analytical column (5 μm, 2.1 mm × 50 mm). The aqueous mobile phase consisted of 5 mm ammonium acetate with 0.1% acetic acid in deionised water, while the organic phase consisted of 0.1% acetic acid in acetonitrile. A Shimadzu HPLC and reverse phase Gemini NX-C18 column coupled to an AB Sciex 3200 Q TRAP MS was operated at unit resolution in the multiple reaction monitoring (MRM) mode. […] The calibration standards ranged from 2 ng/mL to 3,000 ng/mL for RMB005, and 2 ng/mL to 4,000 ng/mL for RMB059, −060 and DQ. Drug concentration versus time plots for each compound were used to determine maximal drug concentration C max, time T max to reach C max, elimination half-life t 1/2 and the area under the concentration-time curve from time zero to infinity, AUC0-inf. From these values the following PK parameters—clearance CL, volume of distribution (Vd) and oral bioavailability (BA) were determined using the non-compartmental analysis Microsoft Excel Add-In PKSolver ([Zhang et al., 2010]).

[3] = Metabolic stability in human liver microsomes; type: in vitro ADME
Procedure: (§1) A 5-point metabolic stability assay in human and mouse liver microsomes were performed in duplicate in 96-well plates. Stock solution of RMB005, −059 and 060 prepared in DMSO were individually incubated at 37°C in mouse and pooled human liver microsomes (0.4 mg/mL). An aliquot was removed at 0 min and quenched with ice cold acetonitrile containing the internal standard carbamazepine (0.1 μM). The cofactor NADPH was added, and the reactions were subsequently stopped at time points 5, 10, 30, and 60 min by removal of an aliquot and quenching with ice cold acetonitrile containing the internal standard. The supernatant of all samples were analysed via LC-MS/MS analysis (reverse phase Gemini NX-C18 column and Shimadzu HPLC and AB Sciex 3200 Q TRAP MS). Calculation of in vitro t1/2, intrinsic clearance rate (CLint) and predicted in vivo clearance (CLH) was carried out using the following equations ([Obach 1999]). CLintClint= 0.693/t1/2(min) ×Volume of incubation (μL)/microsomal protein (μg) Where t1/2 is calculated in minutes.
(§2) Predicted in vivo CLH CLH=Q × fu(plasma)×CLint/fu(mic)/Q+ fu(plasma)× CLint/fu(mic) Where Q is the hepatic blood flow of mouse (90 mL/min/kg) or human (20.7 mL/min/kg). Fu(plasma) is the unbound drug fraction in the plasma and fu(mic) is the unbound fraction in the microsomes.
(§3) The equation below was used in the case of RMB059 and -060, where protein-binding data were not available. CLH=Q × CLint/Q+ CLint

Pf NF54 = details: ref Beteck et al., 2018; read-out: IC50 against Pf NF54; cited from earlier work
[4] = Metabolic stability in mouse liver microsomes; type: in vitro ADME
Procedure: as §1, §2, §3

[5] = Passive permeability, parallel artificial membrane permeation assay (PAMPA); type: in vitro ADME; details: donor pH 6.5, acceptor pH 7.4, 4 h, read-out: Permeability (LogPapp) (converted)
Procedure: A parallel artificial membrane permeation assay (PAMPA) was used to assess the passive permeability of compounds with a 96-well MultiScreen filter plate ([…] pore size, Millipore). The filter plate was precoated with 5% hexadecane in hexane. Stock solutions of compounds were diluted to 1 mM in a donor buffer (pH 6.5). Lucifer yellow was added to the apical wells of the precoated MultiScreen plate containing compound donor solution. The donor buffer solutions were spiked with each test compound (1 mM). The acceptor-buffer solution was prepared by adding 10 μL DMSO to 990 μL acceptor buffer (pH 7.4) and 250 μL were added to the basolateral (acceptor) wells. The donor plate was carefully inserted into the acceptor plate and incubated at room temperature for 4 h. After the incubation period, 50 μL of samples from the acceptor plate were transferred to a round bottom 96-well plate, together with 30 μL of donor buffer for matrix matching. Theoretical equilibrium samples for each test compound were prepared by adding 150 μL of donor solutions to 250 μL acceptor solutions and left at room temperature. These theoretical equilibrium samples represent complete transfer of the compound into the donor well. For the theoretical equilibrium samples, 80 μL were added to the analysis plate. Lastly, 160 μL of the internal standard carbamazepine (0.1 μM) was added to all acceptor and equilibrium samples. A portion of the sample containing Lucifer yellow was analyzed on a BioRad iMark^TM Microplate Absorbance Reader (BioRad, Hercules, CA, United States; excitation 490 nm, emission 510–570 nm) to determine that P app was within the acceptable range (<50 nm/s). Samples were analysed using reverse phase Gemini NX-C18 column (5 μM, 2.1 mm × 50 mm) with a Shimadzu HPLC coupled with an AB Sciex 3200 Q TRAP MS). The Papp for each compound was determined using. C=VD × VA/(VD+VA) ×A×t where VA = volume of donor compartment (0.15 cm^3), VD = volume of acceptor compartment (0.25 cm^3), A = accessible filter area (0.24 cm^2) and t = incubation time (14,400 s). […]

[6] = tested on: multidrug resistant Pf K1; set-up: method as in Beteck et al., 2018; details: ref Beteck et al., 2018; read-out: IC50 against multidrug resistant Pf K1; cited from earlier work
[7] = Kinetic solubility in PBS (HPLC-DAD); type: physicochemical; details: phosphate buffer saline (PBS); for solubility kinetic at 2 h: aqueous buffer, kinetic from dmso stock
Procedure: Stock concentrations of test samples (10 mM) were prepared in DMSO and diluted to a final concentration of […] in phosphate buffer saline (PBS) solutions at pH 2, 6.5, and 7.4 in flat-bottomed 96-well plates. A three-point calibration curve of each control and test compound was prepared from stock solutions in DMSO. Plates were agitated on an orbital shaker at room temperature for 2 h at 200 rpm and subsequently analysed using a reverse phase Gemini NX-C18 column (5 μM, 2.1 mm × 50 mm) with an Agilent 1,200 Rapid Resolution HPLC and diode array detection.

[8] = tested on: multidrug resistant Pf W2; set-up: method as in Beteck et al., 2018; details: ref Beteck et al., 2018; read-out: Activity against multidrug resistant Pf W2; cited from earlier work
[9] = Lipophilicity, 1-octanol/phosphate buffer pH 7.4 (LogD7.4); type: physicochemical
Procedure: Stock solutions ([…]) of compounds were diluted to 100 μM in 96-well deep-well plate containing 1-octanol and phosphate buffer at pH 7.4. The plate was agitated on an orbital shaker at 750 rpm for 2 h. The organic and buffer layers of each well were transferred separately to a new analysis plate. The samples were analysed with the HPLC-diode array detection as described for kinetic solubility. Samples from both layers were analysed to determine LogD7.4 values.

Plasma stability = type: in vitro ADME; details: human plasma
Procedure: Stock solutions of compounds in DMSO were used to spike pooled human plasma. Samples were transferred in duplicate to 6 different wells of a 96-deep well plate. An aliquot of each sample was immediately quenched with ice cold acetonitrile containing the internal standard carbamazepine (0.1 μM), after which the plate was incubated in a water bath (37°C for 1 h). Aliquots of samples were removed at 5, 15, 40, 60, and 180 min and quenched with ice cold acetonitrile. After samples of the final time point were precipitated, the supernatant was transferred to a round bottom 96-well plate for analysis by LC-MS/MS using a reverse phase Gemini NX-C18 column (5 μM, 2.1 mm × 50 mm) with a Shimadzu HPLC coupled with an AB Sciex 3200 Q TRAP MS). The peak area ratios were used to calculate the amount of parent compound remaining and t1/2 in plasma, using the following equations.
% Parent remaining % Parent= Normalised peak area of sample at timepoint/Normalised peak area of sample at t=0 x 100
Predicted t1/2 t1/2= −0.693/λ Where λ is the slope of the Ln % parent remaining vs. time curve.

[10] = *protein binding data not included

t1/2 of DQ [1]: 4.79 ± 1.66 h
CL of DQ [1]: 19.40 ± 3.14 mL/min/kg
Vd of DQ [1]: 8.00 ± 2.96 L/kg
Tmax of DQ [2]: 1.67 ± 0.67 h
AUC0-∞ of DQ [2]: 101 ± 44 µmol·min/L
Cmax [2]: 230 ± 50 nM
SMILES: CCCCCCCCCCOc1cc2c(O)c(C(=O)OCC)cnc2cc1OCC [DQ from RMB059]

t1/2 of DQ [1]: 4.66 ± 1.16 h
CL of DQ [1]: 21.50 ± 3.38 mL/min/kg
Vd of DQ [1]: 8.88 ± 2.87 L/kg
Tmax of DQ [2]: 1.67 ± 0.67 h
AUC0-∞ of DQ [2]: 63 ± 9 µmol·min/L
Cmax [2]: 110 ± 10 nM
SMILES: CCCCCCCCCCOc1cc2c(O)c(C(=O)OCC)cnc2cc1OCC [DQ from RMB060]

Estimated in vivo CLH HLM [3, 10]: 19.7* mL/min/kg
CLint scaled ([3]; human, pooled liver microsomes, calculated from t1/2 in HLM, read-out: In vitro CLint HLM): 410 mL/min/kg
half-life ([3]; pooled liver microsomes, human liver microsomes, NADPH, read-out: Degradation half-life HLM): 0.177 h
Estimated in vivo CLH MLM [4, 10]: 75.2* mL/min/kg
half-life ([4]; mouse liver microsomes, NADPH, read-out: Degradation half-life MLM): 0.277 h
CLint scaled ([4]; mouse, liver microsomes, calculated from t1/2 in MLM, read-out: In vitro CLint MLM): 457 mL/min/kg
Papp at 4 h, 1 mM [5]: 1.58 ×10⁻⁶ cm/s
solubility kinetic at 2 h ([7]; PBS pH 2, read-out: Kinetic solubility pH 2): < 5 µM
solubility kinetic at 2 h ([7]; PBS pH 6.5, read-out: Kinetic solubility pH 6.5): < 5 µM
solubility kinetic at 2 h ([7]; PBS pH 7.4, read-out: Kinetic solubility pH 7.4): < 5 µM
solubility at 2 h ([7]; all pH levels tested (pH 2, 6.5, 7.4)): < 5 µM
logD at 2 h [9]: 2.9
Plasma stability (in words) (Plasma stability): high degree of lability
half-life (Plasma stability; pooled plasma, 37°C): 1.1 h
SMILES: CCCCCCCCCCOc1cc2c(OC(=O)N3CCOCC3)c(C(=O)OCC)cnc2cc1OCC [RMB059]
IC50 (Pf NF54): 6.8 nM
IC50 [6]: 14.4 nM
IC50 [8]: 5.7 nM
